Test results as given in patent US10501455B2, “Inhibitors of leukotriene A4 hydrolase” (Celtaxsys, Inc., priority 2013, dated 2019).
pIC50: −log10 of the molar value.

Columns and labels:
[1] = target: T1, LTA4-h (Homo sapiens, UniProt P09960); assay: Hydrolase assay (hydrolase-homogeneous time resolved fluorescence, LTB4 produced); type: biochemical
T1 sequence (P09960 1-611): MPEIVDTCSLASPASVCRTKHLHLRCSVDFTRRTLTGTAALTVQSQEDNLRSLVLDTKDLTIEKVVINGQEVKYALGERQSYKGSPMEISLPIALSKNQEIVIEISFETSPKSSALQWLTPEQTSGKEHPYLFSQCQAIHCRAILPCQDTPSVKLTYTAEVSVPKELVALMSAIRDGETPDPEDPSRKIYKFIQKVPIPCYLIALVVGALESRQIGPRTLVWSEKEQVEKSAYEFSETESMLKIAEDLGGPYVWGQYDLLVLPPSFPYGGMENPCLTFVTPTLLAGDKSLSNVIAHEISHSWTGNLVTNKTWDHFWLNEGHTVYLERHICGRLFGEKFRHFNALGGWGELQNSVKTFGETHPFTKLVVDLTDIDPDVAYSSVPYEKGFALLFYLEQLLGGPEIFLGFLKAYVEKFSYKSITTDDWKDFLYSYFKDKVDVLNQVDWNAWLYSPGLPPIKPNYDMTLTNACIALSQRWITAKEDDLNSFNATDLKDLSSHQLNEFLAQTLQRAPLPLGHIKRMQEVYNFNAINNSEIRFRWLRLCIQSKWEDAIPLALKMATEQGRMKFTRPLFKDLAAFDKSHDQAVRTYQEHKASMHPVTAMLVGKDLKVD
Source text: The compounds of the invention can be tested for their ability to inhibit LTA4-h by various known assays and by assays described herein. For example, the compounds can be tested for their ability to inhibit LTA4-h activity by assaying the compounds in the hydrolase-homogeneous time resolved fluoroescence assay. This assay, which is a two-step assay, measures the hydrolysis of […] to LTB4 by analyzing the amount of LTB4 produced. The first step involves the enzymatic conversion of […] to LTB4 and the second step involves the quantification of the […] with a homogeneous time resolved fluoroescence assay.
(§1) The whole blood and aminopeptidase assays were performed as described in Penning et al., J. Med. Chem. 2000, 43, 721-735, and Rudberg et al., J. Biol. Chem. Vol. 279, No. 26, Issue of June 25, pp. 27376-27382, 2004, the contents of each of which are expressly incorporated by reference herein. The hydrolase assay was performed as described in U.S. Pat. No. 7,737,145, the contents of which are expressly incorporated herein.

[2] = target: T1, LTA4-h; assay: Peptidase (aminopeptidase) assay; type: biochemical
Experimental: Since LTA4-h hydrolase is grouped with the M1 family of zinc metalloproteases (see, Rudberg, P. C. et al., J. Biol. […] The whole blood and aminopeptidase assays were performed as described in Penning et al., J. Med.

[3] = target: T2, LTA4-h hydrolase (Homo sapiens, UniProt P09960); assay: Whole blood assay (WBA); type: cell-based
T2 construct: endogenous in cells; host or cells: whole blood
T2 sequence (P09960 1-611): T1 sequence (P09960 1-611)
Experimental: as §1, with “Compounds of the invention can also be tested for their ability as inhibitors of LTA4-h hydrolase in the whole blood assay using human, mouse, rat or dog whole blood (see Penning, T. D. et al., J. Med. Chem. (2000), 43(4): 721-735 for a description of a human whole blood assay and a mouse whole blood assay, the contents of which are expressly incorporated herein). […] The whole” for “The whole”

[4] = target: T3, LTA4-h (Mus musculus, UniProt P24527); details: oral administration, mouse blood ex vivo; cited from earlier work
T3 construct: host or cells: mouse blood ex vivo
T3 sequence (P24527 1-611): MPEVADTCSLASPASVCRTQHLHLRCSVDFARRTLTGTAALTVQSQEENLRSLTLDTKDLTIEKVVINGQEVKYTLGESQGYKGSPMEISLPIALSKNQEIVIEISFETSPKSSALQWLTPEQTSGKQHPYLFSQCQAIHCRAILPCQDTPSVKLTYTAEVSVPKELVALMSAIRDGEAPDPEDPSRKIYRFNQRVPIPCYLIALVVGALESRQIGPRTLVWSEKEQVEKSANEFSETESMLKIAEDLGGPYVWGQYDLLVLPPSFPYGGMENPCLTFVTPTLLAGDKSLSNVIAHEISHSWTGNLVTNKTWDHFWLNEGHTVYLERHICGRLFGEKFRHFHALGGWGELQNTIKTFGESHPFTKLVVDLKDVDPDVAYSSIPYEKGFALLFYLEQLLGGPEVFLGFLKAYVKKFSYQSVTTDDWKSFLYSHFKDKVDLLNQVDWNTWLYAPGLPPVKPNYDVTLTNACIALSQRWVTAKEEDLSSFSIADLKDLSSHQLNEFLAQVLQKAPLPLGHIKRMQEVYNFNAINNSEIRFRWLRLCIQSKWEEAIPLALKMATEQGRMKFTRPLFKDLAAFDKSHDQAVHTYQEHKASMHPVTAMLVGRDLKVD

[5] = target: T4, LTA4-h (Rattus norvegicus, UniProt P30349); details: oral administration, rat peritoneum in vivo; cited from earlier work
T4 construct: host or cells: rat peritoneum in vivo
T4 sequence (P30349 1-611): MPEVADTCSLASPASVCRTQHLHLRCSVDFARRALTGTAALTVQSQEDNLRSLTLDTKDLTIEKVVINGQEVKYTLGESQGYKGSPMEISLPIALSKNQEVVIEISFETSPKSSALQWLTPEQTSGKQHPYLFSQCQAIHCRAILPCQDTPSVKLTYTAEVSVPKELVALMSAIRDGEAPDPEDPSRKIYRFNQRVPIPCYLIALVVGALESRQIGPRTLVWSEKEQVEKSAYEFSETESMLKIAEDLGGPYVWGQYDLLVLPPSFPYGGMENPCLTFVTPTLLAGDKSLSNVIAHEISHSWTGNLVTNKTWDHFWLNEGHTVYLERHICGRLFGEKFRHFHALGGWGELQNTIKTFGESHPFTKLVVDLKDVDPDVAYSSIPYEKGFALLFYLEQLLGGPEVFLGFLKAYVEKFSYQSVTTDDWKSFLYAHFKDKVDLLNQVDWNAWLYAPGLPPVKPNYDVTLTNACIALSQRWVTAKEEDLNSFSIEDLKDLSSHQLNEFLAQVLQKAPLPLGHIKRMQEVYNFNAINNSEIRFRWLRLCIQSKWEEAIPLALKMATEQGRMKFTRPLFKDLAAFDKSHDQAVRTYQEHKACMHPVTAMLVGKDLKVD

[6] = tested on: colitis; details: eight weeks of treatment, cotton top tamarins; cited from earlier work

| Structure (SMILES) | pIC50 [1] | pIC50 [2] | pIC50 [3] | inhibition of ionophore-induced LTB4 production [4] | inhibition of ionophore-induced LTB4 production [5] | colitis symptoms [6] |
| --- | --- | --- | --- | --- | --- | --- |
| Clc1ccc(Oc2ccc(NCC3CCNC3)cc2)cc1 (centres unmarked) [Compound 1] | 7.59 | 7.35 | 6.29 | – | – | – |
| Clc1ccc(Oc2ccc(NCC3CCCCN3)cc2)cc1 (centres unmarked) [Compound 2] | 6.72 | 7.14 | 6.06 | – | – | – |
| O=C(O)c1ccc(CN2CCC(CN(Cc3ccc(C(=O)O)cc3)c3ccc(Oc4ccc(Cl)cc4)cc3)C2)cc1 (centres unmarked) [Compound 3] | 6.52 | 7.06 | < 5.52 | – | – | – |
| Clc1ccc(Oc2ccc(NCC3CNC3)cc2)cc1 [Compound 4] | 8.10 | 8.77 | 7.05 | – | – | – |
| Clc1ccc(Oc2ccc(NC3CNC3)cc2)cc1 [Compound 5] | 6.52 | 7.51 | 6.04 | – | – | – |
| Clc1ccc(Oc2ccc(NC3CC4CCC(C3)N4)cc2)cc1 (centres unmarked) [Compound 6] | 6.44 | 6.80 | 5.72 | – | – | – |
| O=C(O)c1ccc(CN2CC(Nc3ccc(Oc4ccc(Cl)cc4)cc3)C2)cc1 [Compound 7] | 8.30 | 8.40 | 7.24 | – | – | – |
| COC(=O)c1ccc(CN(CC2CCNC2)c2ccc(Oc3ccc(Cl)cc3)cc2)cc1 (centres unmarked) [Compound 10] | 7.66 | 7.89 | 6.59 | – | – | – |
| O=C(O)c1ccc(CN(CC2CCNC2)c2ccc(Oc3ccc(Cl)cc3)cc2)cc1 (centres unmarked) [Compound 11] | 7.15 | 6.85 | 6.17 | – | – | – |
| COC(=O)c1ccc(CN(CC2CCN(C)C2)c2ccc(Oc3ccc(Cl)cc3)cc2)cc1 (centres unmarked) [Compound 12] | 7.15 | 6.82 | 6.62 | – | – | – |
| COC(=O)c1ccc(CN(CC2CCN(Cc3ccc(F)cc3)C2)c2ccc(Oc3ccc(Cl)cc3)cc2)cc1 (centres unmarked) [Compound 13] | – | 7.00 | 5.56 | – | – | – |
| CN1CCC(CN(Cc2ccc(C(=O)O)cc2)c2ccc(Oc3ccc(Cl)cc3)cc2)C1 (centres unmarked) [Compound 15] | 6.33 | 6.54 | 6.25 | – | – | – |
| CN1CCC(CN(Cc2ccc(F)cc2)c2ccc(Oc3ccc(Cl)cc3)cc2)C1 (centres unmarked) [Compound 20] | 6.85 | 6.78 | 6.02 | – | – | – |
| O=C(O)c1ccc(CN2CCC(CN(Cc3ccccc3)c3ccc(Oc4ccc(Cl)cc4)cc3)C2)cc1 (centres unmarked) [Compound 25] | 5.81 | 6.43 | 6.28 | – | – | – |
| COC(=O)c1ccc(CN(CC2CNC2)c2ccc(Oc3ccc(Cl)cc3)cc2)cc1 [Compound 28] | 6.77 | 7.34 | 6.10 | – | – | – |
| O=C(O)CN(CC1CCNC1)c1ccc(Oc2ccc(Cl)cc2)cc1 (centres unmarked) [Compound 29] | 6.49 | 7.66 | 6.04 | – | – | – |
| O=C(O)c1ccc(CN(CC2CNC2)c2ccc(Oc3ccc(Cl)cc3)cc2)cc1 [Compound 30] | 6.00 | 6.62 | 5.80 | – | – | – |
| CC(C)(C)OC(=O)N1CCC(CN(Cc2ccc(S(N)(=O)=O)cc2)c2ccc(Oc3ccc(Cl)cc3)cc2)C1 (centres unmarked) [Compound 32] | 5.89 | 7.92 | 5.55 | – | – | – |
| CN(CCCOc1ccc(Cc2ccccc2)cc1)CCC(=O)O.Cl [SC57461] | – | – | – | caused inhibition | caused inhibition | significantly improved colitis symptoms |
